Results on one compound are retold here after paper PMC7423715 (International journal of pharmaceutics, 2020).

The data set deals with Calu-3 cell monolayer. The data set is described as follows: Transepithelial transport across the Calu-3 cell monolayer. Particulars: colistin transport, Calu-3 monolayer, HBSS, 4 hours, LC-MS/MS, n = 4, Fig. 6C.

Structures can show the parent of a compound that is named as a salt. Bridge positions count the residues as written; N and C are the ends. Square brackets hold non-standard residues; d marks the D form. Peptide text beside a SMILES is read from it. * marks the point of attachment. X1 = CC[C@H](C)CCCCC(=O)*; Dab = NCC[C@H](N)C(=O)O

For `CC[C@H](C)CCCCC(=O)N[C@@H](CCN)C(=O)N[C@H](C(=O)N[C@@H](CCN)C(=O)N[C@H]1CCNC(=O)[C@H]([C@@H](C)O)NC(=O)[C@H](CCN)NC(=O)[C@H](CCN)NC(=O)[C@H](CC(C)C)NC(=O)[C@@H](CC(C)C)NC(=O)[C@H](CCN)NC1=O)[C@@H](C)O` [colistin, colistin sulfate] (X1-[Dab]T[Dab][Dab][Dab][dL]L[Dab][Dab]T; lactam 4-C), the “drug retained in the donor compartment” value is recorded as “more than 90%”.
